Assay results: patent publication US20240101540A1, “TARGETED PROTEIN DEGRADATION OF PARP14 FOR USE IN THERAPY” (Ribon Therapeutics, Inc., priority 2022, published 2024)
Where a name gives a salt, the structure may show the parent alone.

Molecular target: T1, HiBiT tagged PARP14 (Homo sapiens, UniProt Q460N5)
T1 construct: engineered to contain a HiBiT tag on both alleles of the PARP14 gene; endogenous in cells; host or cells: Jurkat cells stably transfected with LgBiT (Promega), PARP14 locus edited by CRISPR/Cas9
T1 sequence (Q460N5 whole entry): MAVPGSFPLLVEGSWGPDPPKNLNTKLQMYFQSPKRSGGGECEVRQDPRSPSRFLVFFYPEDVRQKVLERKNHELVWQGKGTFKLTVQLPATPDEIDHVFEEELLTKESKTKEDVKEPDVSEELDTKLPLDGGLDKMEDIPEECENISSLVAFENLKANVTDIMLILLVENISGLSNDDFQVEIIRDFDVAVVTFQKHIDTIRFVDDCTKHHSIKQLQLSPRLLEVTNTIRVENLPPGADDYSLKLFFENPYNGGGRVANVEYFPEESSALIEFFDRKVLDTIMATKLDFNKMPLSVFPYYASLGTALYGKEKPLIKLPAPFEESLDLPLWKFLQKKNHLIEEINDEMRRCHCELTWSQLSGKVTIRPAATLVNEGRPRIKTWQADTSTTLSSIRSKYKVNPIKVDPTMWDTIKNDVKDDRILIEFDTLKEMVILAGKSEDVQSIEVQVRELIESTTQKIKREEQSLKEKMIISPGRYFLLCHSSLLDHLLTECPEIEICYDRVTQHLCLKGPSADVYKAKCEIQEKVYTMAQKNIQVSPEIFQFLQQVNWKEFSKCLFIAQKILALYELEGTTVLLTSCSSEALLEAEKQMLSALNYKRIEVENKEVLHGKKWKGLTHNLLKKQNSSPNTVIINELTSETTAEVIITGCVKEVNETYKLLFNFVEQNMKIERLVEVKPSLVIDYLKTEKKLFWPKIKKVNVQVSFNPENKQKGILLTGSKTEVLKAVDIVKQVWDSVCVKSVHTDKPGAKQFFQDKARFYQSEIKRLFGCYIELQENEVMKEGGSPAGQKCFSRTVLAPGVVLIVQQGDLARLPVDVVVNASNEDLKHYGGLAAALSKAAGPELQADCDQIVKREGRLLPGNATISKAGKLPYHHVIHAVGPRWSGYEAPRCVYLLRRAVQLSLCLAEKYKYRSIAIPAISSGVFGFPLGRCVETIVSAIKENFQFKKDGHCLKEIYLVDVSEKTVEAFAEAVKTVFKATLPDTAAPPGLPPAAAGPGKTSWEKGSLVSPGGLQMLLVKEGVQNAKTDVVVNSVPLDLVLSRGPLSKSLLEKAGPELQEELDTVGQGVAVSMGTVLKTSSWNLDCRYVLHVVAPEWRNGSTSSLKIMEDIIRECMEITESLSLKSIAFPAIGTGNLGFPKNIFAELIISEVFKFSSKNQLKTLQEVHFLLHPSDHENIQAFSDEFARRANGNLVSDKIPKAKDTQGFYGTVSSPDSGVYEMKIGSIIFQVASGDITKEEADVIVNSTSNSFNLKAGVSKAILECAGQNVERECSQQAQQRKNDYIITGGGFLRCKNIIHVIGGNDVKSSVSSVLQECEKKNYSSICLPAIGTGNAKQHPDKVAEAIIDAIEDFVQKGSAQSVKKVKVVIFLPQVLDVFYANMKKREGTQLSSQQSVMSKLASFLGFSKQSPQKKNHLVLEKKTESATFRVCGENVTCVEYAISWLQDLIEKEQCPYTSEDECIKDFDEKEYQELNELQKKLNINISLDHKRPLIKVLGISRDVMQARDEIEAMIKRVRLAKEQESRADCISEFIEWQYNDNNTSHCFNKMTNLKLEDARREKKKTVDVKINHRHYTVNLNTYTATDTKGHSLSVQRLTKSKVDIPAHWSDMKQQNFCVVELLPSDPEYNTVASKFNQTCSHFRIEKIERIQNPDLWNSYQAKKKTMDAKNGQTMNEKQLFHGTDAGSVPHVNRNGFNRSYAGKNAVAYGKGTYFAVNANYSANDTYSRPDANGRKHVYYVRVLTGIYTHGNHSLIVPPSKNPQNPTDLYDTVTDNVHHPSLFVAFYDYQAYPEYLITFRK
Experiment: HiBiT assay for the degradation of PARP14 (HiBiT tagged PARP14 in LgBiT expressing Jurkat cells, 2 or 24 hours)
Assay type: cell-based
Conditions: Assay B (Example B): HiBiT tagged PARP14 degradation in LgBiT expressing Jurkat cells, read-out: DC50
Experimental: Jurkat cells stably transfected with LgBiT (Promega) were engineered to contain a HiBiT tag on both alleles of the PARP14 gene (Genbank Accession Number: NM_017554) via CRISPR/Cas9 editing. The HiBiT tag is an 11 amino acid tag created by Promega that associates with LgBiT protein to form the NanoLuc® tag on the C-terminus of PARP14. Clones were isolated and confirmed for the HiBiT tag via Sanger sequencing.
Degradation of PARP14 protein was assessed by measuring the luminescence of the HiBiT tag associating with the LgBiT protein as a proxy for the PARP14 protein.
Jurkat cells were diluted to 250,000 cells per mL and then added to assay plate (Corning 3574) using a Multidrop (Thermo Fisher) to add 20 μL per well of the 384 well plate, resulting in 5,000 cells per well. 20 nL of a dose response curve diluted in DMSO of each test compound was added to the cell plate using a Mosquito (TTP Labtech) and the plate was incubated at 37° C. for 2 or 24 hours. Assay plate was brought to room temperature then 5 μL per well of Live Cell Substrate (Promega) was added to the plate. Luminescence was measured on an Envision (Perkin Elmer).
The average DMSO was calculated from 32 wells containing 0.1% DMSO only in columns 12 and 24 of the assay plate. The % of DMSO values were calculated as described below: […]
The % of DMSO values were plotted as a function of compound concentration and the following 4-parameter fit was applied to derive the DC50 values:
where top, bottom, and Hill Coefficient are allowed to float. Y is the % of DMSO and X is the compound concentration.
DC50 data for the Example compounds is provided below in Table 2 (“+” is ≤0.03 μM; “++” is ≥0.03 μM).

| Compound | DC50 [nM] |
| --- | --- |
| Cn1nc(N2CCC(=O)NC2=O)c2cccc(N3CCN(CCN4CCC(COc5cc(F)c6c(=O)[nH]c(CSC7CCOCC7)nc6c5)CC4)CC3)c21 [Example 101, 1-(7-(4-(2-(4-(((5-fluoro-4-oxo-2-(((tetrahydro-2H-pyran-4-yl)thio)methyl)-3,4-dihydroquinazolin-7-yl)oxy)methyl)piperidin-1-yl)ethyl)piperazin-1-yl)-1-methyl-1H-indazol-3-yl)dihydropyrimidine-2,4(1H,3H)-dione] | < 30 |
| Cn1nc(C2CCC(=O)NC2=O)c2ccc(N3CCN(CCN4CCC(COc5cc(F)c6c(=O)[nH]c(CSC7CCOCC7)nc6c5)CC4)CC3)cc21 (stereo not drawn) [Example 102, 3-(6-(4-(2-(4-(((5-Fluoro-4-oxo-2-(((tetrahydro-2H-pyran-4-yl)thio)methyl)-3,4-dihydroquinazolin-7-yl)oxy)methyl)piperidin-1-yl)ethyl)piperazin-1-yl)-1-methyl-1H-indazol-3-yl)piperidine-2,6-dione] | < 30 |
| O=C1CCC(N2C(=O)c3cccc4c(N5CCN(CCN6CCC(COc7cc(F)c8c(=O)[nH]c(CSC9CCOCC9)nc8c7)CC6)CC5)ccc2c34)C(=O)N1 (stereo not drawn) [Example 103, 3-(6-(4-(2-(4-(((5-fluoro-4-oxo-2-(((tetrahydro-2H-pyran-4-yl)thio)methyl)-3,4-dihydroquinazolin-7-yl)oxy)methyl)piperidin-1-yl)ethyl)piperazin-1-yl)-2-oxobenzo[cd]indol-1(2H)-yl)piperidine-2,6-dione] | < 30 |
| O=C1CCC(Nc2ccc(F)c(N3CCN(CCN4CCC(COc5cc(F)c6c(=O)[nH]c(CSC7CCOCC7)nc6c5)CC4)CC3)c2)C(=O)N1 (stereo not drawn) [Example 104, 3-((4-fluoro-3-(4-(2-(4-(((5-fluoro-4-oxo-2-(((tetrahydro-2H-pyran-4-yl)thio)methyl)-3,4-dihydroquinazolin-7-yl)oxy)methyl)piperidin-1-yl)ethyl)piperazin-1-yl)phenyl)amino)piperidine-2,6-dione] | < 30 |
| O=C1CCC(Nc2ccc(N3CCN(CCN4CCC(COc5cc(F)c6c(=O)[nH]c(CC7CC7)nc6c5)CC4)CC3)c(F)c2)C(=O)N1 (stereo not drawn) [Example 105, 3-((4-(4-(2-(4-(((2-(cyclopropylmethyl)-5-fluoro-4-oxo-3,4-dihydroquinazolin-7-yl)oxy)methyl)piperidin-1-yl)ethyl)piperazin-1-yl)-3-fluorophenyl)amino)piperidine-2,6-dione formate] | < 30 |
| O=C1CCC(Nc2ccc(N3CCN(CCN4CCC(COc5cc(F)c6c(=O)[nH]c(CC7CCC7)nc6c5)CC4)CC3)c(F)c2)C(=O)N1 (stereo not drawn) [Example 106, 3-((4-(4-(2-(4-(((2-(cyclobutylmethyl)-5-fluoro-4-oxo-3,4-dihydroquinazolin-7-yl)oxy)methyl)piperidin-1-yl)ethyl)piperazin-1-yl)-3-fluorophenyl)amino)piperidine-2,6-dione formate] | < 30 |
| O=C1CCC(Nc2ccc(N3CCN(CCN4CCC(COc5cc(F)c6c(=O)[nH]c(CC7CCCC7)nc6c5)CC4)CC3)c(F)c2)C(=O)N1 (stereo not drawn) [Example 107, 3-((4-(4-(2-(4-(((2-(cyclopentylmethyl)-5-fluoro-4-oxo-3,4-dihydroquinazolin-7-yl)oxy)methyl)piperidin-1-yl)ethyl)piperazin-1-yl)-3-fluorophenyl)amino)piperidine-2,6-dione formate] | < 30 |
| O=C1CCC(Nc2cnc(N3CCN(CCN4CCC(COc5cc(F)c6c(=O)[nH]c(CSC7CCOCC7)nc6c5)CC4)CC3)c(F)c2)C(=O)N1 (stereo not drawn) [Example 108, 3-((5-fluoro-6-(4-(2-(4-(((5-fluoro-4-oxo-2-(((tetrahydro-2H-pyran-4-yl)thio)methyl)-3,4-dihydroquinazolin-7-yl)oxy)methyl)piperidin-1-yl)ethyl)piperazin-1-yl)pyridin-3-yl)amino)piperidine-2,6-dione] | < 30 |
| O=C1CCC(Nc2ccc(OC3CC(CN4CCC(COc5cc(F)c6c(=O)[nH]c(CCC7CCOCC7)nc6c5)CC4)C3)cc2)C(=O)N1 (stereo not drawn) [Example 110] | < 30 |
| O=C1CCC(Nc2ccc(OC3CCC(CN4CCC(COc5cc(F)c6c(=O)[nH]c(CSC7CCOCC7)nc6c5)CC4)CC3)cc2)C(=O)N1 (stereo not drawn) [Example 111] | < 30 |
| O=C1CCC(Nc2ccc(N3CCC(N4CCC(COc5cc(F)c6c(=O)[nH]c(CSC7CCOCC7)nc6c5)CC4)CC3)cc2)C(=O)N1 (stereo not drawn) [Example 112, 3-((4-(4-(((5-fluoro-4-oxo-2-(((tetrahydro-2H-pyran-4-yl)thio)methyl)-3,4-dihydroquinazolin-7-yl)oxy)methyl)-[1,4′-bipiperidin]-1′-yl)phenyl)amino)piperidine-2,6-dione] | < 30 |
| O=C1CCC(Nc2ccc(N3CCC(N4CCC(COc5cc(F)c6c(=O)[nH]c(CSC7CCOCC7)nc6c5)CC4)CC3)c(F)c2)C(=O)N1 (stereo not drawn) [Example 113] | < 30 |
| O=C1CCC(Nc2ccc(N3CCC(N4CCC(COc5cc(F)c6c(=O)[nH]c(CCC7CCOCC7)nc6c5)CC4)CC3)cc2)C(=O)N1 (stereo not drawn) [Example 114] | < 30 |
| O=C1CCC(Nc2ccc(N3CCC(N4CCC(COc5cc(F)c6c(=O)[nH]c(COC7CCOCC7)nc6c5)CC4)CC3)cc2)C(=O)N1 (stereo not drawn) [Example 115] | < 30 |
| O=C1CCC(Nc2ccc(N3CCC(N4CC(N5CCC(COc6cc(F)c7c(=O)[nH]c(CSC8CCOCC8)nc7c6)CC5)C4)CC3)c(F)c2)C(=O)N1 (stereo not drawn) [Example 116, 3-((3-fluoro-4-(4-(3-(4-(((5-fluoro-4-oxo-2-(((tetrahydro-2H-pyran-4-yl)thio)methyl)-3,4-dihydroquinazolin-7-yl)oxy)methyl)piperidin-1-yl)azetidin-1-yl)piperidin-1-yl)phenyl)amino)piperidine-2,6-dione] | < 30 |
| O=C1CCC(Nc2ccc(N3CCC(N4CCC(COc5cc(F)c6c(=O)[nH]c(CCC7CCOCC7)nc6c5)CC4)CC3)c(F)c2)C(=O)N1 (stereo not drawn) [Example 117, 3-((3-fluoro-4-(4-(((5-fluoro-4-oxo-2-(2-(tetrahydro-2H-pyran-4-yl)ethyl)-3,4-dihydroquinazolin-7-yl)oxy)methyl)-[1,4′-bipiperidin]-11′-yl)phenyl)amino)piperidine-2,6-dione] | < 30 |
| O=C1CCC(Nc2ccc(N3CCC(CCN4CCC(COc5cc(F)c6c(=O)[nH]c(CSC7CCOCC7)nc6c5)CC4)CC3)cc2)C(=O)N1 (stereo not drawn) [Example 118, 3-((4-(4-(2-(4-(((5-fluoro-4-oxo-2-(((tetrahydro-2H-pyran-4-yl)thio)methyl)-3,4-dihydroquinazolin-7-yl)oxy)methyl)piperidin-1-yl)ethyl)piperidin-1-yl)phenyl)amino)piperidine-2,6-dione] | < 30 |
| O=C1CCC(Nc2ccc(N3CCN(CCN4CCC(COc5cc(F)c6c(=O)[nH]c(CSC7CCOCC7)nc6c5)CC4)CC3)cn2)C(=O)N1 (stereo not drawn) [Example 119] | < 30 |
| O=C1CCC(Nc2ccc(OC3CCN(CCN4CCC(COc5cc(F)c6c(=O)[nH]c(CSC7CCOCC7)nc6c5)CC4)CC3)cc2)C(=O)N1 (stereo not drawn) [Example 120, 3-((4-((1-(2-(4-(((5-fluoro-4-oxo-2-(((tetrahydro-2H-pyran-4-yl)thio)methyl)-3,4-dihydroquinazolin-7-yl)oxy)methyl)piperidin-1-yl)ethyl)piperidin-4-yl)oxy)phenyl)amino)piperidine-2,6-dione] | < 30 |
| O=C1CCC(Nc2ccc(N3CCC(N4CCN(CCOc5cc(F)c6c(=O)[nH]c(CSC7CCOCC7)nc6c5)CC4)CC3)cc2)C(=O)N1 (stereo not drawn) [Example 125] | < 30 |
| O=C1CCC(Nc2ccc(N3CCN(C4CCN(CCOc5cc(F)c6c(=O)[nH]c(CSC7CCOCC7)nc6c5)CC4)CC3)c(F)c2)C(=O)N1 (stereo not drawn) [Example 126] | < 30 |
| O=C1CCC(Nc2ccc(N3CC(N4CCC(CCOc5cc(F)c6c(=O)[nH]c(CSC7CCOCC7)nc6c5)CC4)C3)cc2)C(=O)N1 (stereo not drawn) [Example 127, 3-((4-(3-(4-(2-((5-fluoro-4-oxo-2-(((tetrahydro-2H-pyran-4-yl)thio)methyl)-3,4-dihydroquinazolin-7-yl)oxy)ethyl)piperidin-1-yl)azetidin-1-yl)phenyl)amino)piperidine-2,6-dione] | < 30 |
| O=C1CCC(Nc2ccc(N3CCC4(CC3)CC(N3CCC(COc5cc(F)c6c(=O)[nH]c(CSC7CCOCC7)nc6c5)CC3)C4)cc2)C(=O)N1 (stereo not drawn) [Example 128] | < 30 |
| O=C1CCC(Nc2ccc(N3CCN(CCN4CCC(CNc5cc6nc(CSC7CCOCC7)[nH]c(=O)c6c(F)c5F)CC4)CC3)cc2)C(=O)N1 (stereo not drawn) [Example 129, 3-((4-(4-(2-(4-(((5,6-difluoro-4-oxo-2-(((tetrahydro-2H-pyran-4-yl)thio)methyl)-3,4-dihydroquinazolin-7-yl)amino)methyl)piperidin-1-yl)ethyl)piperazin-1-yl)phenyl)amino)piperidine-2,6-dione formate] | < 30 |
